Measurements taken from PMC7215714.

Tests used:
C2C12 cells = tested on: C2C12 cells; design: method as in PMID 30925718; conditions: C2C12 mouse skeletal muscle cell line; cited from earlier work
[1] = tested on: mitochondria obtained from the hippocampus, cortex, and cerebellum of rats; conditions: cited from earlier work
[2] = cited from earlier work
[3] = tested on: caspases 3 and 9 in SH-SY5Y cells; experiment: Western blotting of cleaved caspase 3 and 9; type: cell-based, human; conditions: 2000 µM, 6 h, both differentiated and undifferentiated SH-SY5Y cells
Description: Amiodarone 50 μM and MDMA 1000 μM were used as negative controls. After treatment, cells were washed twice with cold PBS buffer (pH 7.4) and incubated with 70 μL of cell lysis buffer (radioimmunoprecipitation assay (RIPA) buffer supplemented with complete protease inhibitor (Roche Diagnostics, Mannheim, Germany)) for 15 min on ice. Then, the cell lysates were collected into Eppendorf tubes and centrifuged at 1600 g for 20 min. […] The protein extracts (18 μg per lane) were loaded, separated by SDS/PAGE using 4–12% NuPAGE Bis-Tris gels (Invitrogen, Basel, Switzerland), and then transferred to nitrocellulose membranes by the Trans-Blot Turbo Blotting System (Bio-Rad, Cressier, Switzerland). […] Protein expression was quantified using the Fusion Pulse TS device (Vilber Lourmat, Oberschwaben, Germany).

SH-SY5Y cells = tested on: SH-SY5Y cells; design: method as in PMID 32295288; conditions: cited from earlier work

CCCC(C(=O)c1ccc2ccccc2c1)N1CCCC1 (stereo not shown) [naphyrone]
Electron transport chain complexes with reduced activity (C2C12 cells): complex II

CNC(C)C(=O)c1ccc(C)cc1 (stereo not shown) [4-MMC, 4-methylmethcathinone]
Effect on mitochondrial ROS levels and outer mitochondrial membrane [1]: increases mitochondrial ROS levels and damages the outer mitochondrial membrane

CCCC(C(=O)c1ccccc1)N1CCCC1 (stereo not drawn) [α-PVP, α-pyrrolidinopentiophenone]
Electron transport chain complexes with reduced activity (C2C12 cells): complex I

CC(N)Cc1ccccc1 (stereo not shown) [amphetamine, Amphetamine]
Plasma concentrations reached after a pharmacological dose [2]: low micromolar range

CNC(C)Cc1ccc2c(c1)OCO2 (stereo not shown) [MDMA, 3,4-methylenedioxymethamphetamine]
Electron transport chain complexes with reduced activity (C2C12 cells): reduced the activity of complexes I and III

CNC(C)C(=O)c1ccc(Cl)cc1 (stereo not shown) [4-CMC, 4-chloromethcathinone]
Expression of cleaved caspase 9 [3]: increased the expression of cleaved caspase 9
Effect on autophagy (SH-SY5Y cells): stimulates autophagy
